Laboratory results reported in patent publication US10758534B2 (Vertex Pharmaceuticals Incorporated, priority 2014, dated 2020).

The compounds below were run against T1, F508del (Homo sapiens, UniProt P13569, DEL508-508) (assay: Protocol 2: FRET membrane potential optical assay (VIPR), identification of correction compounds). Details: Table 3; compounds of Table 1 as modulators of CFTR activity; protocol not stated.
T1 construct: expressed in transfected cells
Type: cell-based
Summary of the method: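 FRET read-out (CC2-DMPE donor, DiSBAC2(3) voltage-sensitive acceptor) of membrane depolarization on VIPR II. Corrector candidates incubated 16 hrs at 37° C. with NIH3T3 cells expressing F508del; temperature correction at 27° C. as positive control; stimulation by 10 μM forskolin, 20 μM genistein, chloride-free gluconate bath.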

T1 sequence (P13569 with tags, fused parts or gaps DEL508-508): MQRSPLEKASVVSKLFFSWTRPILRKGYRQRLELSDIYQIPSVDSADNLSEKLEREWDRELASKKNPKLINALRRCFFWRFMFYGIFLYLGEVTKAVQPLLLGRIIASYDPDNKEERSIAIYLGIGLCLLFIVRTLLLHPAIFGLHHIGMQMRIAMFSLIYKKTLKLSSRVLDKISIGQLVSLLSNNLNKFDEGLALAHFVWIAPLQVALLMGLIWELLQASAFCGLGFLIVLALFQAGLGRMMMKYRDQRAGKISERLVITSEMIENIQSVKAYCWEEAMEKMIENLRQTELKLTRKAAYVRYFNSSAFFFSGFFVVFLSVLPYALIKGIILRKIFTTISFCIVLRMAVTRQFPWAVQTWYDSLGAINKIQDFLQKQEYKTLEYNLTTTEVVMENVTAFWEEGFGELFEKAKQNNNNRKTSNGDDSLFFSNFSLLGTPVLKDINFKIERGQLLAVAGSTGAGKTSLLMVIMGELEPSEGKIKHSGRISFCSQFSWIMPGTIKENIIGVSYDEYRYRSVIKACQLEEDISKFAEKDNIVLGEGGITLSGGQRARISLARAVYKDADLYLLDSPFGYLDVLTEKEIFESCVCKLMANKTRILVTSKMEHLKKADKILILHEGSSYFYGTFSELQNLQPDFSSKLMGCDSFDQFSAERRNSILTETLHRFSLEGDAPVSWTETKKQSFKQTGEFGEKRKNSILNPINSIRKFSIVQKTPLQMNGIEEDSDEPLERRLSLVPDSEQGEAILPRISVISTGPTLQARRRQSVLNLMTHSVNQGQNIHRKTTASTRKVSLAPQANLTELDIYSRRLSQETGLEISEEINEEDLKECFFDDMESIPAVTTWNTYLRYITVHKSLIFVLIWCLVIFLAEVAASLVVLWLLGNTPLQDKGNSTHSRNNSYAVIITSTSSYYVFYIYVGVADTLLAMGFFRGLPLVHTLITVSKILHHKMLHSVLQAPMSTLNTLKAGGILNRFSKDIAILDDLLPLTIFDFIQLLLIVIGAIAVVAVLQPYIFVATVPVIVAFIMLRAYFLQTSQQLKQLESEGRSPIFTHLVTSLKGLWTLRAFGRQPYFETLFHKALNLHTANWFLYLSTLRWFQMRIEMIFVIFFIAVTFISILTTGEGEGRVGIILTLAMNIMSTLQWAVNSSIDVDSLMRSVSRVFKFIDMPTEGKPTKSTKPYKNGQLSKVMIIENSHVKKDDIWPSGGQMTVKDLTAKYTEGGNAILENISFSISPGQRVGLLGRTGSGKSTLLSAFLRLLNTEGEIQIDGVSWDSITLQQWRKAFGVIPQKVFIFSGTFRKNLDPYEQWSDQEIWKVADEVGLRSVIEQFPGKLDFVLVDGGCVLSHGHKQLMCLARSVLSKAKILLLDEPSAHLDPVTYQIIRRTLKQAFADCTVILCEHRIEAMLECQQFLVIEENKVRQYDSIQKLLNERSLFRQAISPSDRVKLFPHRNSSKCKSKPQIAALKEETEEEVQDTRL

Row | EC30 | Structure (SMILES)
1 | ++ (“++” means between 3 uM and 10 uM) | COCCNc1cccc(S(=O)(=O)NC(=O)c2ccc(C)nc2Oc2c(C)cc(C)cc2C)n1 [Compound 372, N-[[6-(2-methoxyethylamino)-2-pyridyl]sulfonyl]-6-methyl-2-(2,4,6-trimethylphenoxy)pyridine-3-carboxamide]
2 | +++ (“+++” means <3 uM) | COc1ccc(-c2ccc(C(=O)NS(=O)(=O)c3cc[nH]n3)c(Oc3c(C)cc(C)cc3C)n2)c(F)c1 [Compound 374, 6-(2-fluoro-4-methoxy-phenyl)-N-(1H-pyrazol-3-ylsulfonyl)-2-(2,4,6-trimethylphenoxy)pyridine-3-carboxamide]
3 | +++ (“+++” means <3 uM) | COc1cc(-c2ccc(C(=O)NS(=O)(=O)c3cccc(N)n3)c(Oc3c(C)cc(C)cc3C)n2)ccc1C [Compound 375, N-[(6-amino-2-pyridyl)sulfonyl]-6-(3-methoxy-4-methyl-phenyl)-2-(2,4,6-trimethylphenoxy)pyridine-3-carboxamide]
4 | +++ (“+++” means <3 uM) | Cc1cc(C)c(CN2Cc3ccccc3C2(C)C(=O)NS(=O)(=O)c2ncccc2O)c(C)c1 (stereo not shown) [Compound 377, N-[(3-hydroxy-2-pyridyl)sulfonyl]-1-methyl-2-[(2,4,6-trimethylphenyl)methyl]isoindoline-1-carboxamide]
5 | +++ (“+++” means <3 uM) | Cc1cc(C)c(CN2Cc3ccccc3C2(C)C(=O)NS(=O)(=O)c2ccn[nH]2)c(C)c1 (stereo not shown) [Compound 378, 1-methyl-N-(1H-pyrazol-5-ylsulfonyl)-2-[(2,4,6-trimethylphenyl)methyl]isoindoline-1-carboxamide]
6 | +++ (“+++” means <3 uM) | COc1c(F)cc(Cl)cc1-c1cc(C(=O)NS(=O)(=O)c2ccccc2)n(Cc2c(C)cccc2C)n1 [Compound 379, N-(benzenesulfonyl)-5-(5-chloro-3-fluoro-2-methoxy-phenyl)-2-[(2,6-dimethylphenyl)methyl]pyrazole-3-carboxamide]
7 | ++ (“++” means between 3 uM and 10 uM) | Cc1ccc(Oc2nc(-c3cnn(CC(C)C)c3)ccc2C(=O)NS(=O)(=O)c2cccc(N)n2)c(C)c1 [Compound 381, N-[(6-amino-2-pyridyl)sulfonyl]-2-(2,4-dimethylphenoxy)-6-(1-isobutylpyrazol-4-yl)pyridine-3-carboxamide]
8 | +++ (“+++” means <3 uM) | CCOc1cc(F)cc(-c2ccc(C(=O)NS(=O)(=O)c3ccn[nH]3)c(N3[C@H](C)CC[C@@H]3C)n2)c1 [Compound 382, 2-[(2R,5S)-2,5-dimethylpyrrolidin-1-yl]-6-(3-ethoxy-5-fluoro-phenyl)-N-(1H-pyrazol-5-ylsulfonyl)pyridine-3-carboxamide]
9 | +++ (“+++” means <3 uM) | Cc1cc(C)c(Oc2nc(-c3cccc4c3ccn4C)ccc2C(=O)NS(=O)(=O)c2cccc(N)n2)c(C)c1 [Compound 386, N-[(6-amino-2-pyridyl)sulfonyl]-6-(1-methylindol-4-yl)-2-(2,4,6-trimethylphenoxy)pyridine-3-carboxamide]
10 | +++ (“+++” means <3 uM) | COc1ncc(F)cc1-c1ccc(C(=O)NS(=O)(=O)c2cccc(N)n2)c(Oc2c(C)cc(C)cc2C)n1 [Compound 387, N-[(6-amino-2-pyridyl)sulfonyl]-6-(5-fluoro-2-methoxy-3-pyridyl)-2-(2,4,6-trimethylphenoxy)pyridine-3-carboxamide]
11 | ++ (“++” means between 3 uM and 10 uM) | Cc1cc(C)c(Oc2nc(-c3cccc(CC#N)c3)ccc2C(=O)NS(=O)(=O)c2cccc(N)n2)c(C)c1 [Compound 388, N-[(6-amino-2-pyridyl)sulfonyl]-6-[3-(cyanomethyl)phenyl]-2-(2,4,6-trimethylphenoxy)pyridine-3-carboxamide]
12 | +++ (“+++” means <3 uM) | CC(C)Oc1ccc(-c2nc(N3[C@H](C)CC[C@@H]3C)c(C(=O)NS(=O)(=O)c3cccc(N)n3)cc2Br)cn1 [Compound 390, N-[(6-amino-2-pyridyl)sulfonyl]-5-bromo-2-[(2S,5R)-2,5-dimethylpyrrolidin-1-yl]-6-(6-isopropoxy-3-pyridyl)pyridine-3-carboxamide]
13 | ++ (“++” means between 3 uM and 10 uM) | Cc1ccc(-c2ccc(C(=O)NS(=O)(=O)c3ccc[nH]c3=O)c(N3[C@H](C)CC[C@@H]3C)n2)cc1 [Compound 392, 2-[(2R,5S)-2,5-dimethylpyrrolidin-1-yl]-N-[(2-oxo-1H-pyridin-3-yl)sulfonyl]-6-(p-tolyl)pyridine-3-carboxamide]
14 | +++ (“+++” means <3 uM) | Cc1cc(C)c(CN2Cc3cccc(O)c3C2(C)C(=O)NS(=O)(=O)c2cccc(N)n2)c(C)c1 (stereo not shown) [Compound 394, N-[(6-amino-2-pyridyl)sulfonyl]-7-hydroxy-1-methyl-2-[(2,4,6-trimethylphenyl)methyl]isoindoline-1-carboxamide]
15 | +++ (“+++” means <3 uM) | COc1c(F)cccc1-c1ccc(C(=O)NS(=O)(=O)c2cccc(N)n2)c(Oc2c(C)cc(C)cc2C)n1 [Compound 396, N-[(6-amino-2-pyridyl)sulfonyl]-6-(3-fluoro-2-methoxy-phenyl)-2-(2,4,6-trimethylphenoxy)pyridine-3-carboxamide]
16 | +++ (“+++” means <3 uM) | Cc1cc(C)c(Oc2nc(-c3ccc(C)c(C)c3)ccc2C(=O)NS(=O)(=O)c2cccc(N)n2)c(C)c1 [Compound 399, N-[(6-amino-2-pyridyl)sulfonyl]-6-(3,4-dimethylphenyl)-2-(2,4,6-trimethylphenoxy)pyridine-3-carboxamide]

Second part, the compound before the results:

Row | Structure (SMILES) | EC30
17 | CC(C)COc1cc(F)cc(-c2ccc(C(=O)NS(=O)(=O)c3cccc(N)n3)c(N3C[C@H](C)C[C@H](C)C3)n2)c1 [Compound 371, N-[(6-amino-2-pyridyl)sulfonyl]-2-[(3R,5S)-3,5-dimethyl-1-piperidyl]-6-(3-fluoro-5-isobutoxy-phenyl)pyridine-3-carboxamide] | +++ (“+++” means <3 uM)
18 | C[C@@H]1CC[C@H](C)N1c1nc(C(C)(C)C)ccc1C(=O)NS(=O)(=O)c1cccc(N)n1 [Compound 373, N-[(6-amino-2-pyridyl)sulfonyl]-6-tert-butyl-2-[(2S,5R)-2,5-dimethylpyrrolidin-1-yl]pyridine-3-carboxamide] | ++ (“++” means between 3 uM and 10 uM)
19 | CC(C)COc1cc(F)cc(-c2ccc(C(=O)NS(=O)(=O)c3cccc(N)n3)c(Oc3ccccc3)n2)c1 [Compound 376, N-[(6-amino-2-pyridyl)sulfonyl]-6-(3-fluoro-5-isobutoxy-phenyl)-2-phenoxy-pyridine-3-carboxamide] | +++ (“+++” means <3 uM)
20 | CC(C)COc1cc(F)cc(-c2ccc(C(=O)NS(=O)(=O)c3cccc(N)n3)c(N3CCCCC3)n2)c1 [Compound 380, N-[(6-amino-2-pyridyl)sulfonyl]-6-(3-fluoro-5-isobutoxy-phenyl)-2-(1-piperidyl)pyridine-3-carboxamide] | +++ (“+++” means <3 uM)
21 | CC(C)COc1cc(F)cc(-c2ccc(C(=O)NS(=O)(=O)c3cccc(N)n3)c(N3CCC4CCCC43)n2)c1 (stereo not shown) [Compound 383, 2-(3,3a,4,5,6,6a-hexahydro-2H-cyclopenta[b]pyrrol-1-yl)-N-[(6-amino-2-pyridyl)sulfonyl]-6-(3-fluoro-5-isobutoxy-phenyl)pyridine-3-carboxamide] | +++ (“+++” means <3 uM)
22 | CC(C)CC(C)Oc1cc(-c2ccc(C(=O)NS(=O)(=O)c3cccc(N)n3)c(N3CC(C)CC3(C)C)n2)ccn1 (stereo not shown) [Compound 384, N-[(6-amino-2-pyridyl)sulfonyl]-6-[2-(1,3-dimethylbutoxy)-4-pyridyl]-2-(2,2,4-trimethylpyrrolidin-1-yl)pyridine-3-carboxamide] | +++ (“+++” means <3 uM)
23 | COC(=O)[C@@H]1CCCN1c1nc(-c2cc(F)cc(OCC(C)C)c2)ccc1C(=O)NS(=O)(=O)c1cccc(N)n1 [Compound 385, methyl (2S)-1-[3-[(6-amino-2-pyridyl)sulfonylcarbamoyl]-6-(3-fluoro-5-isobutoxy-phenyl)-2-pyridyl]pyrrolidine-2-carboxylate] | +++ (“+++” means <3 uM)
24 | CC(C)COc1ccnc(-c2ccc(C(=O)NS(=O)(=O)c3cccc(N)n3)c(N3[C@H](C)CC[C@@H]3C)n2)c1 [Compound 389, N-[(6-amino-2-pyridyl)sulfonyl]-2-[(2S,5R)-2,5-dimethylpyrrolidin-1-yl]-6-(4-isobutoxy-2-pyridyl)pyridine-3-carboxamide] | +++ (“+++” means <3 uM)
25 | CC(C)COc1cc(F)cc(-c2ccc(C(=O)NS(=O)(=O)c3ccn[nH]3)c(NCC3CC(F)(F)C3)n2)c1 [Compound 393, 2-[(3,3-difluorocyclobutyl)methylamino]-6-(3-fluoro-5-isobutoxy-phenyl)-N-(1H-pyrazol-5-ylsulfonyl)pyridine-3-carboxamide] | ++ (“++” means between 3 uM and 10 uM)
26 | CC(C)COc1cc(F)cc(-c2ccc(C(=O)NS(=O)(=O)c3cccc(O)c3)c(N3CC(C)CC3(C)C)n2)c1 (stereo not shown) [Compound 395, 6-(3-fluoro-5-isobutoxy-phenyl)-N-(3-hydroxyphenyl)sulfonyl-2-(2,2,4-trimethylpyrrolidin-1-yl)pyridine-3-carboxamide] | +++ (“+++” means <3 uM)
27 | CC(C)COc1cccc(-c2ccc(C(=O)NS(=O)(=O)c3cccc(N)n3)c(N3CC(C)CC3(C)C)n2)n1 (stereo not shown) [Compound 397, N-[(6-amino-2-pyridyl)sulfonyl]-6-(6-isobutoxy-2-pyridyl)-2-(2,2,4-trimethylpyrrolidin-1-yl)pyridine-3-carboxamide] | +++ (“+++” means <3 uM)
28 | CC(C)COc1cc(F)cc(-c2ccc(C(=O)NS(=O)(=O)c3cccc(N)n3)c(N3CCC[C@@H]3C(F)(F)F)n2)c1 [Compound 398, N-[(6-amino-2-pyridyl)sulfonyl]-6-(3-fluoro-5-isobutoxy-phenyl)-2-[(2R)-2-(trifluoromethyl)pyrrolidin-1-yl]pyridine-3-carboxamide] | +++ (“+++” means <3 uM)
